One block for each compound: values may come before it.
Assays:
[1] = not given; remark: listed apart in the source
[2] = not given; remark: listed apart in the source
[3] = not given; remark: listed apart in the source
[4] = not given; remark: listed apart in the source
[5] = not given; remark: listed apart in the source
[6] = not given; remark: listed apart in the source

flash point: 30.00 °C
flash point [1]: 28.00 °C
Structure (SMILES): CC(C)CO [2-methylpropan-1-ol]

flash point: 40.00 °C
Structure (SMILES): CCC(O)CC [pentan-3-ol]

flash point [2]: 123.00 °C
Structure (SMILES): C=CC(=O)OCCC[Si](OC)(OC)OC [(3-ACRYLOXYPROPYL)TRIMETHOXYSILANE]

flash point: 0.00 °C
Structure (SMILES): C1=CCC=C1 [cyclopenta-1,3-diene]

flash point [3]: 36.1 °C
Structure (SMILES): CCc1ccc(C)cc1 [p -ethyltoluene]

flash point [2]: 93.00 °C
Structure (SMILES): C=CC(=O)OCCC[Si](O[Si](C)(C)C)(O[Si](C)(C)C)O[Si](C)(C)C [(3-ACRYLOXYPROPYL)TRIS(TRIMETHYLSILOXY)SILANE]

flash point [4]: 48 °C
flash point [5]: 41 °C
Structure (SMILES): CCCCC1CCCCC1 [n-butylcyclohexane]

flash point [3]: 54.1 °C
Structure (SMILES): Cc1ccc(C(C)(C)C)cc1 [4-tert -butyltoluene]

flash point: 57.20 °C
Structure (SMILES): NCCN [ethane-1,2-diamine]

flash point [2]: 31.00 °C
Structure (SMILES): C=CC[Si](Cl)(Cl)Cl [ALLYLTRICHLOROSILANE]

flash point: 147.00 °C
Structure (SMILES): OCCCCCCO [hexane-1,6-diol]

flash point [4]: -18 °C
flash point [5]: -34 °C
Structure (SMILES): C=CC=C(C)C [4-methyl-1,3-pentadiene]

flash point: -34.44 °C
Structure (SMILES): COC(C)(C)C [2-methoxy-2-methylpropane]

flash point [4]: 18 °C
flash point [6]: 24 °C
flash point [5]: 28 °C
Structure (SMILES): CC#CCCCCC [2-octyne]

flash point: 135.00 °C
Structure (SMILES): c1ccc(COCc2ccccc2)cc1 [phenylmethoxymethylbenzene]

flash point [4]: 5 °C
flash point [5]: -3 °C
Structure (SMILES): CCCC(C)C(C)C (centres undefined) [2,3-dimethylhexane]

flash point: 152.00 °C
Structure (SMILES): OCC#CCO [but-2-yne-1,4-diol]

flash point [3]: 74.2 °C
Structure (SMILES): CCCC(CC)c1ccccc1 (centres undefined) [(1-ethylbutyl)benzene]

flash point: -73.30 °C
Structure (SMILES): CC=CC [but-2-ene]

flash point: 123.89 °C
Structure (SMILES): OCCCOCCCO [3-(3-hydroxypropoxy)propan-1-ol]

flash point [4]: 31 °C
flash point [5]: 35 °C
Structure (SMILES): CCCC1CCCCC1 [n-propylcyclohexane]

flash point: 127.00 °C
Structure (SMILES): NCCOCCO [2-(2-aminoethoxy)ethanol]

flash point [3]: 62.1 °C
Structure (SMILES): CC(C)CCc1ccccc1 [isopentylbenzene]

flash point [3]: 56.1 °C
Structure (SMILES): CCc1cc(C)ccc1C [2-ethyl-p -xylene]

flash point: 109.00 °C
Structure (SMILES): CCC(C)(O)C#CC(C)(O)CC (centres undefined) [3,6-dimethyloct-4-yne-3,6-diol]

flash point: 148.90 °C
Structure (SMILES): OC[C@@H](O)[C@@H](O)[C@H](O)[C@@H](O)CO [(2R,3R,4R,5S)-hexane-1,2,3,4,5,6-hexol]

flash point: 60.00 °C
Structure (SMILES): CC(C)CC(C)(C)CO [2,2,4-trimethylpentan-1-ol]

flash point: 128.00 °C
Structure (SMILES): OC/C=C/CO [(E)-but-2-ene-1,4-diol]

flash point: 21.50 °C
Structure (SMILES): CC1CNCC(C)C1 (centres undefined) [3,5-dimethylpiperidine]

flash point: -18.00 °C
Structure (SMILES): C/C=C\CC [(Z)-pent-2-ene]

flash point [4]: 11 °C
flash point [5]: 12 °C
Structure (SMILES): C[C@@H]1CCCC[C@@H]1C [cis-1,2-dimethylcyclohexane]

flash point [3]: 60.7 °C
Structure (SMILES): CCCC(C)c1ccccc1 (centres undefined) [sec -pentylbenzene]

flash point: -25.56 °C
flash point [5]: -21 °C
Structure (SMILES): C1CCOC1 [tetrahydrofuran]

flash point: 143.33 °C
Structure (SMILES): CC(O)COC(C)COC(C)CO (centres undefined) [2-[2-(2-hydroxypropoxy)propoxy]propan-1-ol]

flash point [3]: 100.1 °C
Structure (SMILES): CCCCCCC(C)c1ccccc1 (centres undefined) [(1-methylheptyl)benzene]

flash point: 16.00 °C
flash point [1]: 13.00 °C
Structure (SMILES): CCCCCCCC [octane]

flash point: 51.00 °C
Structure (SMILES): Brc1cccnc1 [3-bromopyridine]

flash point: 103.00 °C
Structure (SMILES): Cc1cccc(N)n1 [6-methyl-2-pyridinamine]

flash point [3]: 87.2 °C
Structure (SMILES): CCCCCC(C)c1ccccc1 (centres undefined) [(1-methylhexyl)benzene]

flash point [4]: -29 °C
flash point [5]: -28 °C
Structure (SMILES): C=CC(C)(C)C [3,3-dimethyl-1-butene]

flash point: 60.00 °C
Structure (SMILES): CCN(C=O)CC [N,N-diethylformamide]

flash point [3]: 55.1 °C
Structure (SMILES): CCc1ccc(CC)cc1 [p -diethylbenzene]

flash point: -116.00 °C
Structure (SMILES): C=C(C)C [2-methylprop-1-ene]

flash point [3]: 52 °C
Structure (SMILES): CCC(C)c1ccccc1 (centres undefined) [sec -butylbenzene]

flash point: 70.00 °C
Structure (SMILES): CCN(CC)C(C)=O [N,N-diethylacetamide]

flash point [3]: 47.1 °C
Structure (SMILES): Cc1cccc(C(C)C)c1 [m -cymene]

flash point [3]: 57.8 °C
Structure (SMILES): CCCc1ccccc1C [o -propyltoluene]

flash point: -38.00 °C
flash point [1]: 10.00 °C
Structure (SMILES): CC(C)(C)N [2-methylpropan-2-amine]

flash point [3]: 55.1 °C
Structure (SMILES): CCc1ccccc1CC [o -diethylbenzene]

flash point: 73.90 °C
Structure (SMILES): CC(C)(O)C#CC(C)(C)O [2,5-dimethylhex-3-yne-2,5-diol]

flash point: 80.00 °C
flash point [1]: 74.00 °C
Structure (SMILES): CCCCCCCCCO [nonan-1-ol]

flash point: 73.00 °C
flash point [1]: 77.00 °C
Structure (SMILES): CCCCCCCO [heptan-1-ol]

flash point [4]: 5 °C
flash point [1]: 4.00 °C
Structure (SMILES): CCCCCC(C)C [2-methylheptane]

flash point [3]: 57.0 °C
Structure (SMILES): CC(C)C(C)c1ccccc1 (centres undefined) [(1,2-dimethylpropyl)benzene]

flash point [3]: 58.1 °C
Structure (SMILES): CCc1ccc(C)c(C)c1 [4-ethyl-o -xylene]

flash point: -4.00 °C
Structure (SMILES): C#CCC(C)C [4-methylpent-1-yne]

flash point [3]: 50.1 °C
Structure (SMILES): Cc1ccccc1C(C)C [o -cymene]

flash point [4]: -34 °C
Structure (SMILES): C/C=C/C(C)C [trans-4-methyl-2-pentene]

The next lines start with the compound.

Structure (SMILES): ClCOCCl [chloro-(chloromethoxy)methane]
flash point: 19.00 °C

Structure (SMILES): Cc1cccc(C(C)(C)C)c1 [1-tert -butyl-3-methylbenzene]
flash point [3]: 60.6 °C

Structure (SMILES): N#Cc1cccnc1 [3-pyridinecarbonitrile]
flash point: 84.00 °C

Structure (SMILES): CC(O)CNCC(C)O (centres undefined) [1-(2-hydroxypropylamino)propan-2-ol]
flash point: 126.00 °C

Structure (SMILES): CC(=O)OCC[Si](C)(C)Cl [ACETOXYETHYLDIMETHYLCHLOROSILANE]
flash point [2]: 63.00 °C

Structure (SMILES): CCC(C)c1cccc(C)c1 (centres undefined) [1-sec -butyl-3-methylbenzene]
flash point [3]: 63.1 °C

Structure (SMILES): C1=CCCC=C1 [1,3-cyclohexadiene]
flash point [4]: -16 °C
flash point [5]: 26 °C

Structure (SMILES): C=CCCCCCCCCCCCCCCC [1-heptadecene]
flash point [4]: 135 °C
flash point [6]: 141 °C

Structure (SMILES): CCC(C)c1ccc(C)cc1 (centres undefined) [1-sec -butyl-4-methylbenzene]
flash point [3]: 65 °C

Structure (SMILES): CCOCC [ethoxyethane]
flash point: -40.00 °C
flash point [1]: -45.00 °C

Structure (SMILES): CCCCc1ccccc1C [1-butyl-2-methylbenzene]
flash point [3]: 72.5 °C

Structure (SMILES): C=CCN [prop-2-en-1-amine]
flash point: -28.00 °C
flash point [1]: -29.00 °C

Structure (SMILES): Cc1ccc(CC(C)C)cc1 [1-isobutyl-4-methylbenzene]
flash point [3]: 67.4 °C

Structure (SMILES): C1CCC(NC2CCCCC2)CC1 [N-cyclohexylcyclohexanamine]
flash point: 103.00 °C

Structure (SMILES): O=C1CCCN1C1CCCCC1 [1-cyclohexyl-2-pyrrolidinone]
flash point: 145.00 °C

Structure (SMILES): Cc1ccc(C)cc1 [p -xylene]
flash point [3]: 25.1 °C

Structure (SMILES): CCCCCCCN [heptan-1-amine]
flash point: 44.00 °C

Structure (SMILES): CO[C@H]1CO[C@H]2[C@@H]1OC[C@H]2OC
flash point: 103.00 °C

Structure (SMILES): CC(O)CO (centres undefined) [propane-1,2-diol]
flash point: 104.44 °C

Structure (SMILES): C=CCOCC1CO1 (centres undefined) [2-(allyloxymethyl)oxirane]
flash point: 48.00 °C

Structure (SMILES): CC(C)c1ccccc1 [isopropylbenzene]
flash point: 46.00 °C

Structure (SMILES): CCc1ccc(CC)c(C)c1 [1,4-diethyl-2-methylbenzene]
flash point [3]: 73.0 °C

Structure (SMILES): Cc1ccccc1 [toluene]
flash point [3]: 7.1 °C

Structure (SMILES): CCCc1cccc(C)c1C [1,2-dimethyl-3-propylbenzene]
flash point [3]: 72 °C

Structure (SMILES): CCCc1ccccc1 [propylbenzene]
flash point [5]: 47 °C
flash point [3]: 42.1 °C

Structure (SMILES): C=CCCCCCCCCCCC [1-tridecene]
flash point [4]: 79 °C
flash point [6]: 92 °C
flash point [5]: 80 °C

Structure (SMILES): OC(CBr)CCBr (centres undefined) [1,4-dibromobutan-2-ol]
flash point: 113.00 °C

Structure (SMILES): CC(C)c1cccc(C(C)C)c1 [1,3-diisopropylbenzene]
flash point [5]: 76 °C
flash point [3]: 76.8 °C

Structure (SMILES): CCc1ccc(C)c(CC)c1 [1,3-diethyl-4-methylbenzene]
flash point [3]: 72.2 °C

Structure (SMILES): CC(C)C(=O)OCC(C)(C)C(O)C(C)C (centres undefined)
flash point: 120.00 °C

Structure (SMILES): CCc1ccccc1C [o -ethyltoluene]
flash point [3]: 39.1 °C

Structure (SMILES): Cc1ccc(C(C)C)c(C)c1 [1,3-dimethyl-4-isopropylbenzene]
flash point [3]: 67.2 °C

Structure (SMILES): CCc1cc(C)cc(CC)c1 [1,3-diethyl-5-methylbenzene]
flash point [3]: 70 °C

Structure (SMILES): NCc1ccccc1 [phenylmethanamine]
flash point: 72.00 °C

Structure (SMILES): CC(C)c1ccc(C(C)C)cc1 [1,4-diisopropylbenzene]
flash point [3]: 76.1 °C

Structure (SMILES): CCCc1cccc(CC)c1 [1-ethyl-3-propylbenzene]
flash point [3]: 69.7 °C

Structure (SMILES): N#Cc1ccccn1 [2-pyridinecarbonitrile]
flash point: 89.00 °C

Structure (SMILES): CC(C)(CO)[C@@H](O)C(=O)NCCCO
flash point: 113.00 °C

Structure (SMILES): O=C(OCC1CCC(COC(=O)c2ccccc2)CC1)c1ccccc1 (centres undefined)
flash point: 161.00 °C

Structure (SMILES): CCc1ccc(C(C)(C)C)cc1 [1-tert -butyl-4-ethylbenzene]
flash point [3]: 76.0 °C

Structure (SMILES): CCc1cc(CC)cc(CC)c1 [1,3,5-triethylbenzene]
flash point [3]: 81.1 °C

Structure (SMILES): CCC(C)c1ccc(C)cc1C (centres undefined) [1-sec -butyl-2,4-dimethylbenzene]
flash point [3]: 81.4 °C

Structure (SMILES): CC(C)c1ccccc1 [cumene]
flash point [3]: 31.1 °C

Structure (SMILES): CC(C)C(C)(C)C [2,2,3-trimethylbutane]
flash point [4]: -24 °C
flash point [5]: -6 °C

Structure (SMILES): Cc1ccc(C(C)C)cc1C [1,2-dimethyl-4-isopropylbenzene]
flash point [3]: 68.1 °C

Structure (SMILES): N#Cc1ccncc1 [4-pyridinecarbonitrile]
flash point: 88.00 °C

Structure (SMILES): OCC(F)(F)F [2,2,2-trifluoroethanol]
flash point: 29.00 °C

Source: a flash point compilation (Sun et al. 2020)
